# Patent US20040033213A1, “Methods of modulating dendritic cells using adjuvants” (Corixa Corporation, priority 2002, published 2004)
# Tests used:
# Format in all cases: cell-based
# [1] = test system: Human d7 Cultured Dendritic Cells; experiment: Flow cytometry phenotype analysis of human d7 cultured dendritic cells after 24 h stimulation; conditions: LPS 10 ng/ml, others 100 ng/ml; for HLA-DR MFI: 7 day DCs, 24 h stimulation
# [2] = test system: 6-7 day cultured human dendritic cells; experiment: ELISA of cytokines (IL-12 p40, IL-12 p70, TNF-α) in 22 h induction supernatants of cultured human dendritic cells; conditions: for IL-12 p40 / IL-12 p70 / TNF-α: 22 Hrs
# From the text: Recent articles have described how human dendritic cells can be derived in vitro from CD14 positive monocyte precursors in peripheral blood. A “buffy coat” preparation can now be commonly obtained from a unit of normal human peripheral blood from a blood bank on request. The leukocyte fraction was harvested from this buffy coat preparation using standard ficoll centrifugation techniques. Subsequently, the leukocyte fraction was labeled with anti-CD 14 antibody coupled to magnetic microbeads. This preparation was then passed over a magnet (Miltanyi Biotech) and CD14 positive monocytes were collected. These CD14 positive monocyte precursors were then cultured for 5-7 days in vitro (5×10^5 cells/ml) with GM-CSF (20 ng/ml) for the duration of the culture. […] After the 24 hour in vitro stimulation culture, cells were washed twice and stained with a panel of monoclonal antibodies specific for different cell surface activation and co-receptor molecules found on mature, activated DCs.
# Supernatants from DCs stimulated with LPS, MPL® immunostimulant-S, RC-527, RC-529, and RC-544 were collected and tested by ELISA analysis for cytokines.
# [3] = test system: murine bone marrow derived DCs + D011.10 T cells; experiment: APC function of ova-pulsed, lipid A potentiated murine DCs co-cultured with D011.10 T cells (cytokine ELISA)
# From the text: These antigen pulsed, lipid A potentiated cells were then washed thoroughly and titered against ova-specific T cell effector cells in vitro at an APC: T cell ratio titration of 1:1 out to as high as 1:512. The effector T cells in this in vitro assay were the antigen naive, but antigen (ova) specific, MHC restricted I-A^d splenic T cells from transgenic D011.10 mice.
# D011.10 TCR-transgenic mice were used in these experiments as donors of antigen specific naive T cells. In their germline DNA these mice contain rearranged TCR-Vα and -Vβ genes that encode a T cell receptor (TCR) specific for the ovalbumin peptide 323-339 bound to IA^d (Balb/c) Class II MHC molecules. The transgenic ova peptide specific TCR can be detected with the KJ1-26 monoclonal antibody (mAb) that binds only to this particular TCR heterodimer. These cells provide a ready source of “normal” antigen (ova)-specific effector T cells. Effective antigen-mediated APC stimulation of those T cells is generally measured by ELISA quantitation of IL-2 or IFN-γ in the culture supernatants of DC+D011.10 T cells after 24-48 hours of incubation.
# In one experiment, murine bone marrow derived DCs (6 day cultures) were pulsed with ova (50 μg/ml-5×10^5 cells/ml) and then potentiated overnight with LPS(R595), MPL® immunostimulant-S, RC-527, RC-529 or RC-544 prior to being cultured together with naive D011.10 effector T cells (FIGS. 1-7). The APC function of these DCs as measured by their ability to stimulate IL-2, IFN-γ IL-12 (p70) and IL-12 (p40) secretion in the DC+D011.10 co-culture systems was analyzed. All of the data shown in FIGS. 1-7 was developed from DCs maintained in lipid A induction cultures for either 15 or 38 hours prior to use in the T cell assay.
# [4] = test system: cultured human DCs + autologous T cells
# [5] = Exp. # 092398, Day 7, LPS 10 ng/ml, others 100 ng/ml
# [6] = Exp. # 093098, LPS 10 ng/ml, others 100 ng/ml
structure (smiles),measurement,setting,value
CCCCCCCCCCCC(CC(=O)NC(COC1OC(CO)C(OP(=O)(O)O)C(OC(=O)CC(CCCCCCCCCCC)OC(=O)CCCCCCCCC)C1NC(=O)CC(CCCCCCCCCCC)OC(=O)CCCCCCCCC)C(=O)O)OC(=O)CCCCCCCCC (stereo not shown) [RC-527],CD 1a % positive cells,"[1]; Exp. 091698, 24 h",93.5%
same,CD 1a MFI,"[1]; Exp. 091698, 24 h",8.71
same,CD 4 % positive cells,"[1]; Exp. 091698, 24 h",69.5%
same,CD 4 MFI,"[1]; Exp. 091698, 24 h",2.33
same,CD 14 % positive cells,"[1]; Exp. 091698, 24 h",4.2%
same,CD 35 % positive cells,"[1]; Exp. 091698, 24 h",49.4%
same,CD 35 MFI,"[1]; Exp. 091698, 24 h",2.74
same,CD 40 MFI,"[1]; Exp. 091698, 24 h",43.0
same,CD 44 MFI,"[1]; Exp. 091698, 24 h",329
same,CD 54 MFI,"[1]; Exp. 091698, 24 h",34.9
same,CD 62 L % positive cells,"[1]; Exp. 091698, 24 h",11.2%
same,CD 69 % positive cells,"[1]; Exp. 091698, 24 h",16.1%
same,CD 80 % positive cells,"[1]; Exp. 091698, 24 h",99.5%
same,CD 80 MFI,"[1]; Exp. 091698, 24 h",8.37
same,CD 83 % positive cells,"[1]; Exp. 091698, 24 h",97.0%
same,CD 83 MFI,"[1]; Exp. 091698, 24 h",3.52
same,CD 86 % positive cells,"[1]; Exp. 091698, 24 h",99.8%
same,CD 86 MFI,"[1]; Exp. 091698, 24 h",18.1
same,CD 95 % positive cells,"[1]; Exp. 091698, 24 h",93.6%
same,CD 95 MFI,"[1]; Exp. 091698, 24 h",1.61
same,HLA-DR MFI,[1]; Exp. 091698,74.2
same,CD 1a % positive cells,"[1]; Exp. 092398, 24 h",84.1%
same,CD 1a MFI,"[1]; Exp. 092398, 24 h",5.57
same,CD 4 % positive cells,"[1]; Exp. 092398, 24 h",69.5%
same,CD 4 MFI,"[1]; Exp. 092398, 24 h",2.66
same,CD 14 % positive cells,"[1]; Exp. 092398, 24 h",4.3%
same,CD 35 % positive cells,"[1]; Exp. 092398, 24 h",65.1%
same,CD 35 MFI,"[1]; Exp. 092398, 24 h",3.02
same,CD 40 MFI,"[1]; Exp. 092398, 24 h",35.0
same,CD 54 MFI,"[1]; Exp. 092398, 24 h",42.6
same,CD 62 L % positive cells,"[1]; Exp. 092398, 24 h",13.6%
same,CD 69 % positive cells,"[1]; Exp. 092398, 24 h",10.5%
same,CD 80 % positive cells,"[1]; Exp. 092398, 24 h",99.4%
same,CD 80 MFI,"[1]; Exp. 092398, 24 h",12.7
same,CD 83 % positive cells,"[1]; Exp. 092398, 24 h",97.6%
same,CD 83 MFI,"[1]; Exp. 092398, 24 h",3.57
same,CD 86 % positive cells,"[1]; Exp. 092398, 24 h",99.9%
same,CD 86 MFI,"[1]; Exp. 092398, 24 h",28.0
same,CD 95 % positive cells,"[1]; Exp. 092398, 24 h",94.8%
same,CD 95 MFI,"[1]; Exp. 092398, 24 h",1.78
same,αC5aR + GAR Alexa % positive cells,"[1]; Exp. 092398, 24 h",42.3%
same,CD 44 MFI,"[1]; Exp. 092398, 24 h, values printed with a trailing +",499+
same,GAR-Alexa % positive cells,"[1]; Exp. 092398, 24 h, secondary reagent staining",2.9%
same,HLA-DR MFI,[1]; Exp. 092398,107.8
same,CCR 6 % positive cells,"[1]; Exp. 093098, 24 h",4.0%
same,CD 1a % positive cells,"[1]; Exp. 093098, 24 h",80.3%
same,CD 1a MFI,"[1]; Exp. 093098, 24 h",6.83
same,CD 3 % positive cells,"[1]; Exp. 093098, 24 h",28.5%
same,CD 3 MFI,"[1]; Exp. 093098, 24 h",3.89
same,CD 4 % positive cells,"[1]; Exp. 093098, 24 h",75.2%
same,CD 4 MFI,"[1]; Exp. 093098, 24 h",3.06
same,CD 11c % positive cells,"[1]; Exp. 093098, 24 h",92.6%
same,CD 11c MFI,"[1]; Exp. 093098, 24 h",6.77
same,CD 14 % positive cells,"[1]; Exp. 093098, 24 h",3.3%
same,CD 40 MFI,"[1]; Exp. 093098, 24 h",34.9
same,CD 54 MFI,"[1]; Exp. 093098, 24 h",47.0
same,CD 62 L % positive cells,"[1]; Exp. 093098, 24 h",3.0%
same,CD 80 % positive cells,"[1]; Exp. 093098, 24 h",98.9%
same,CD 80 MFI,"[1]; Exp. 093098, 24 h",13.1
same,CD 83 % positive cells,"[1]; Exp. 093098, 24 h",92.6%
same,CD 83 MFI,"[1]; Exp. 093098, 24 h",3.63
same,CD 86 % positive cells,"[1]; Exp. 093098, 24 h",99.5%
same,CD 86 MFI,"[1]; Exp. 093098, 24 h",27.4
same,CD 123 % positive cells,"[1]; Exp. 093098, 24 h",52.9%
same,CD 123 MFI,"[1]; Exp. 093098, 24 h",1.99
same,αC5aR + Alexa 488 % positive cells,"[1]; Exp. 093098, 24 h",42.7%
same,αC5aR + Alexa 488 MFI,"[1]; Exp. 093098, 24 h",8.17
same,HLA-DR MFI,[1]; Exp. 093098,172.9
same,IL-12 p40,"[2]; Exp. # 091698, LPS 10 ng/ml, others 100 ng/ml","202,200 pg/mL/5 × 10^5 Cells"
same,IL-12 p70,"[2]; Exp. # 092398 (second line, Day7), LPS 10 ng/ml, others 100 ng/ml",201.4 pg/ml/5 × 10^5 Cells
same,IL-12 p40,[2]; [5],"163,000 pg/mL/5 × 10^5 Cells"
same,TNF-α,[2]; [5],"10,750 pg/mL/5 × 10^5 Cells"
same,IL-12 p70,"[2]; Exp. # 092398 as printed (first line of section), LPS 10 ng/ml, others 100 ng/ml",194.0 pg/ml/5 × 10^5 Cells
same,IL-12 p70,"[2]; Exp. # 092398 as printed (third line of section), LPS 10 ng/ml, others 100 ng/ml",168.9 pg/ml/5 × 10^5 Cells
same,TNF-α,"[2]; Exp. # 093098 (third line of section), LPS 10 ng/ml, others 100 ng/ml","7,020 pg/mL/5 × 10^5 Cells"
same,IL-12 p40,[2]; [6],"107,600 pg/mL/5 × 10^5 Cells"
same,TNF-α,[2]; [6],"4,000 pg/mL/5 × 10^5 Cells"
same,IL-12 (p40) expression (in words),"[2]; all three experiments, LPS 10 ng/ml, others 100 ng/ml",in every case a potent stimulator of IL-12 (p40)
same,IL-12 (p70) (in words),[2]; the one donor in which LPS and MPL-S gave a significant amount,high levels of IL-12 (p70)
same,IL-12 (p70) expression (in words),[2]; the other two experiments (different normal donors),significant levels of IL-12 (p70) expression
same,TNF-α secretion (in words),[2]; three donors,very strong TNF-α effect in all three donors
same,IFN-γ release by D011.10 T cells (in words),"[3]; DCs precultured 38 hours, FIG. 3",generally more potent
same,IFN-γ secretion by D011.10 cells (in words),"[3]; DCs prestimulated 15 hours, FIG. 2",high levels of IFN-γ release
same,IL-2 secretion (in words),"[3]; DCs prestimulated 15 hours, all T cell:APC ratios, FIG. 1",comparable in their ability to stimulate IL-2 secretion
same,IFN-γ secretion at T cell:APC ratio 32:1 (in words),[3]; FIG. 4,comparable to that observed with LPS
same,IL-12 (p70) in DC+D011.10 co-cultures (in words),[3]; FIG. 5,most potent
same,release of IL-12 (p40) homodimer in DC+D011.10 co-cultures (in words),[3]; FIG. 7,most potent effect
same,"T cell proliferation / DC activation, CPM 3H-thymidine response (in words)",[4],highest levels of DC activation compared to MPL® immunostimulant
